Laboratory results reported in ChEMBL document CHEMBL5046249, “Synthesis, biological evaluation and cellular localization study of fluorescent derivatives of Jiyuan Oridonin A” (Eur J Med Chem, 2022).

Tests used:
Type in all cases: functional, cell-based
[1] = test system: MGC-803; experiment: Antiproliferative activity against human MGC-803 cells assessed as inhibition of cell growth measured after 72 hrs by SRB assay; settings: MGC-803, 72 h
[2] = test system: SW1990; experiment: Antiproliferative activity against human SW1990 cells assessed as inhibition of cell growth measured after 72 hrs by SRB assay; settings: SW1990, 72 h
[3] = test system: PC-3; experiment: Antiproliferative activity against human PC-3 cells assessed as inhibition of cell growth measured after 72 hrs by SRB assay; settings: PC-3, 72 h
[4] = test system: TE-1; experiment: Antiproliferative activity against human TE-1 cells assessed as inhibition of cell growth measured after 72 hrs by SRB assay; settings: TE-1, 72 h
[5] = test system: HGC-27; experiment: Antiproliferative activity against human HGC-27 cells assessed as inhibition of cell growth measured after 72 hrs by SRB assay; settings: HGC-27, 72 h

Structure (SMILES) | IC50 [1] [nM] | IC50 [2] [nM] | IC50 [3] [nM] | IC50 [4] [nM] | IC50 [5] [nM]
C=C1C(=O)[C@]23[C@H](O)[C@H]1C[C@H](O)[C@H]2[C@]12CCCC(C)(C)[C@H]1C[C@H]3O[C@H]2OCCCCCc1cn(CCCCCCN2C(=O)c3cccc4c(N5CCCCC5)ccc(c34)C2=O)nn1 | 5880 | 5020 | 990 | 10100 | 2170
[N-]=[N+]=NCCCCN1C(=O)c2cccc3c(N4CCCCC4)ccc(c23)C1=O | > 32000 | > 32000 | > 32000 | > 32000 | > 32000
C=C1C(=O)[C@]23[C@H](O)[C@H]1C[C@H](O)[C@H]2[C@]12CCCC(C)(C)[C@H]1C[C@H]3O[C@H]2OCCCCc1cn(CCOCCN2C(=O)c3cccc4c(N5CCCCC5)ccc(c34)C2=O)nn1 | 3210 | 2250 | 1240 | 2700 | 1950
C=C1C(=O)[C@]23[C@H](O)[C@H]1C[C@H](O)[C@H]2[C@]12CCCC(C)(C)[C@H]1C[C@H]3O[C@H]2OCCCCc1cn(CCCCCN2C(=O)c3cccc4c(N5CCCCC5)ccc(c34)C2=O)nn1 | 3070 | 2690 | 1270 | 6380 | 1950
C=C1C(=O)[C@]23[C@H](O)[C@H]1C[C@H](O)[C@H]2[C@]12CCCC(C)(C)[C@H]1C[C@H]3O[C@H]2OCCCCCCc1cn(CCCCCN2C(=O)c3cccc4c(N5CCCCC5)ccc(c34)C2=O)nn1 | 4180 | 4590 | 3890 | 3450 | 2280
C=C1C(=O)[C@]23[C@H](O)[C@H]1C[C@H](O)[C@H]2[C@]12CCCC(C)(C)[C@H]1C[C@H]3O[C@H]2OCCCCCCc1cn(CCCCN2C(=O)c3cccc4c(N5CCCCC5)ccc(c34)C2=O)nn1 | 4590 | 4520 | 6160 | 8820 | 2290
C=C1C(=O)[C@]23[C@H](O)[C@H]1C[C@H](O)[C@H]2[C@]12CCCC(C)(C)[C@H]1C[C@H]3O[C@H]2OCCCCc1cn(CCOCCOCCOCCN2C(=O)c3cccc4c(N5CCCCC5)ccc(c34)C2=O)nn1 | 3130 | 4350 | 1040 | 2430 | 2490
[N-]=[N+]=NCCCCCN1C(=O)c2cccc3c(N4CCCCC4)ccc(c23)C1=O | > 32000 | > 32000 | > 32000 | > 32000 | > 32000
C=C1C(=O)[C@]23[C@H](O)[C@H]1C[C@H](O)[C@H]2[C@]12CCCC(C)(C)[C@H]1C[C@H]3O[C@H]2OCCc1cn(CCOCCOCCOCCN2C(=O)c3cccc4c(N5CCCCC5)ccc(c34)C2=O)nn1 | 2650 | 1560 | 930 | 1870 | 5260
C=C1C(=O)[C@]23[C@H](O)[C@H]1C[C@H](O)[C@H]2[C@]12CCCC(C)(C)[C@H]1C[C@H]3O[C@H]2OCCCCCCc1cn(CCOCCOCCOCCN2C(=O)c3cccc4c(N5CCCCC5)ccc(c34)C2=O)nn1 | 3870 | 2640 | 1270 | 3080 | 1440
[N-]=[N+]=NCCCN1C(=O)c2cccc3c(N4CCCCC4)ccc(c23)C1=O | > 32000 | > 32000 | > 32000 | > 32000 | > 32000
C=C1C(=O)[C@]23[C@H](O)[C@H]1C[C@H](O)[C@H]2[C@]12CCCC(C)(C)[C@H]1C[C@H]3O[C@H]2OCCCCCc1cn(CCCCN2C(=O)c3cccc4c(N5CCCCC5)ccc(c34)C2=O)nn1 | 2720 | 4650 | 1340 | 5130 | 3010
[N-]=[N+]=NCCOCCOCCOCCN1C(=O)c2cccc3c(N4CCCCC4)ccc(c23)C1=O | > 32000 | > 32000 | > 32000 | > 32000 | > 32000
C#CCCCO[C@@H]1O[C@@H]2C[C@@H]3C(C)(C)CCC[C@]13[C@@H]1[C@@H](O)C[C@H]3C(=C)C(=O)[C@@]21[C@@H]3O | 2460 | 3220 | 5370 | 4230 | 2680
C=C1C(=O)[C@]23[C@H](O)[C@H]1C[C@H](O)[C@H]2[C@]12CCCC(C)(C)[C@H]1C[C@H]3O[C@H]2OCCCCCCc1cn(CCCN2C(=O)c3cccc4c(N5CCCCC5)ccc(c34)C2=O)nn1 | 6060 | 3190 | 2380 | 3670 | 2480
C=C1C(=O)[C@]23[C@H](O)[C@H]1C[C@H](O)[C@H]2[C@]12CCCC(C)(C)[C@H]1C[C@H]3O[C@H]2OCCCCCCc1cn(CCN2C(=O)c3cccc4c(N5CCCCC5)ccc(c34)C2=O)nn1 | 3250 | 2880 | 1600 | 4660 | 3740
[N-]=[N+]=NCCCCCCN1C(=O)c2cccc3c(N4CCCCC4)ccc(c23)C1=O | > 32000 | > 32000 | > 32000 | > 32000 | > 32000
C=C1C(=O)[C@]23[C@H](O)[C@H]1C[C@H](O)[C@H]2[C@]12CCCC(C)(C)[C@H]1C[C@H]3O[C@H]2OCCCc1cn(CCOCCOCCN2C(=O)c3cccc4c(N5CCCCC5)ccc(c34)C2=O)nn1 | 3450 | 1940 | 2170 | 3020 | 1250

The remaining molecules from weak to strong by IC50 [1], led by results:

IC50 [1] [nM] | IC50 [2] [nM] | IC50 [3] [nM] | Structure (SMILES) | IC50 [4] [nM] | IC50 [5] [nM]
2430 | 3650 | 2490 | C=C1C(=O)[C@]23[C@H](O)[C@H]1C[C@H](O)[C@H]2[C@]12CCCC(C)(C)[C@H]1C[C@H]3O[C@H]2OCCCCCc1cn(CCCN2C(=O)c3cccc4c(N5CCCCC5)ccc(c34)C2=O)nn1 | 4620 | 3260
2130 | 1180 | 990 | C=C1C(=O)[C@]23[C@H](O)[C@H]1C[C@H](O)[C@H]2[C@]12CCCC(C)(C)[C@H]1C[C@H]3O[C@H]2OCCc1cn(CCOCCN2C(=O)c3cccc4c(N5CCCCC5)ccc(c34)C2=O)nn1 | 1310 | 4140
2110 | 2870 | 2200 | C=C1C(=O)[C@]23[C@H](O)[C@H]1C[C@H](O)[C@H]2[C@]12CCCC(C)(C)[C@H]1C[C@H]3O[C@H]2OCCCCc1cn(CCCCCCN2C(=O)c3cccc4c(N5CCCCC5)ccc(c34)C2=O)nn1 | 4330 | 2090
1970 | 3260 | 2880 | C#CCCCCCCO[C@@H]1O[C@@H]2C[C@@H]3C(C)(C)CCC[C@]13[C@@H]1[C@@H](O)C[C@H]3C(=C)C(=O)[C@@]21[C@@H]3O | 3180 | 3010
1930 | 1780 | 1490 | C=C1C(=O)[C@]23[C@H](O)[C@H]1C[C@H](O)[C@H]2[C@]12CCCC(C)(C)[C@H]1C[C@H]3O[C@H]2OCCCCCCc1cn(CCOCCN2C(=O)c3cccc4c(N5CCCCC5)ccc(c34)C2=O)nn1 | 1530 | 1170
1690 | 860 | 910 | C=C1C(=O)[C@]23[C@H](O)[C@H]1C[C@H](O)[C@H]2[C@]12CCCC(C)(C)[C@H]1C[C@H]3O[C@H]2OCCCCc1cn(CCCCN2C(=O)c3cccc4c(N5CCCCC5)ccc(c34)C2=O)nn1 | 3890 | 1820
1570 | 1410 | 790 | C=C1C(=O)[C@]23[C@H](O)[C@H]1C[C@H](O)[C@H]2[C@]12CCCC(C)(C)[C@H]1C[C@H]3O[C@H]2OCCc1cn(CCCCCCN2C(=O)c3cccc4c(N5CCCCC5)ccc(c34)C2=O)nn1 | 4450 | 3090
1530 | 1380 | 1670 | C=C1C(=O)[C@]23[C@H](O)[C@H]1C[C@H](O)[C@H]2[C@]12CCCC(C)(C)[C@H]1C[C@H]3O[C@H]2OCCCc1cn(CCCCCN2C(=O)c3cccc4c(N5CCCCC5)ccc(c34)C2=O)nn1 | 3940 | 3310
1200 | 3310 | 770 | C=C1C(=O)[C@]23[C@H](O)[C@H]1C[C@H](O)[C@H]2[C@]12CCCC(C)(C)[C@H]1C[C@H]3O[C@H]2OCCCCc1cn(CCCN2C(=O)c3cccc4c(N5CCCCC5)ccc(c34)C2=O)nn1 | 2640 | 6130
960 | 880 | 2500 | C=C1C(=O)[C@]23[C@H](O)[C@H]1C[C@H](O)[C@H]2[C@]12CCCC(C)(C)[C@H]1C[C@H]3O[C@H]2OCCc1cn(CCN2C(=O)c3cccc4c(N5CCCCC5)ccc(c34)C2=O)nn1 | 3340 | 2640
910 | 1200 | 740 | C=C1C(=O)[C@]23[C@H](O)[C@H]1C[C@H](O)[C@H]2[C@]12CCCC(C)(C)[C@H]1C[C@H]3O[C@H]2OCCCc1cn(CCCCCCN2C(=O)c3cccc4c(N5CCCCC5)ccc(c34)C2=O)nn1 | 2970 | 3320
